What all share (assay): growth of human tumour cells (NCI), 48 h
The subject of test [1] is MDA-N.
For test [2], the system named is ACHN renal.
Test [3] relates to CAKI-1 renal.
Test [4] has as its system 786-0 renal.
Test [5] deals with HCC-2998 colon.
The test system of test [6] is SR leukemia.
Test [7] relates to SNB-19 CNS.
Test [8] has as its system EKVX NSCLC.
Test [9] relates to SK-MEL-5 melanoma.
Test [10] relates to HOP-92 NSCLC.
Test [11] has as its system NCI/ADR-RES ovarian.
The subject of test [12] is NCI-H522 lung.

Each structure is given as a SMILES string.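 Compound exposure: 48 hours, 5 concentrations, 96-well plates. TGI marks complete inhibition of growth.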

With `CC(C)=CCC[C@@H](C)C1=C(O)C(Nc2ccccc2)=C(C)C(=O)C1=O`, the TGI in test [1] was greater than 100 µM; in test [2], 36.1 µM; in test [3], 56.8 µM; in [4], greater than 100 µM; in test [5], greater than 100 µM; in test [6], greater than 100 µM. Further, the TGI in test [7] was greater than 100 µM; in test [8], greater than 100 µM; in test [9], 55.6 µM; in [10] it was greater than 78.3 µM; in [11], 45.6 µM.

`CCOC(=O)CCC(NC(=O)c1ccc(Nc2nc3ccccc3nc2C(=O)OCC)s1)C(=O)OCC` (configuration not stated): the TGI in test [1], in test [3], in test [4], in test [5], in test [6] and in test [7] was greater than 100 µM in each case. Also, the TGI in test [8], in test [9], in [10], in test [12] and in [11] was greater than 100 µM throughout.

For the molecule `CC(C)(CO)CNc1cc(Cl)nc(N)n1`, the TGI in test [1], in [2], in test [3], in test [4], in [5] and in [6] was greater than 100 µM each time. Further, the TGI in [8], in [9], in test [10], in [12] and in test [11] was greater than 100 µM each time.

As to `ClC1=C(Cl)C2OC3C=CCC3OC2C(Cl)=C1Cl` (configuration not stated), the TGI in [1] was greater than 100 µM; in test [2] it was greater than 100 µM; in test [3], greater than 100 µM; in [4] it was greater than 100 µM; in test [5], 88.4 µM; in test [6], greater than 100 µM. The TGI in [8], in [9], in [10], in test [12] and in test [11] was greater than 100 µM throughout.

In the case of `O=c1onc(Nc2ccccc2)n1-c1ccccc1`, the TGI in test [1], in test [2], in test [3], in [4], in test [5] and in test [6] was greater than 100 µM throughout. The TGI in test [7], in test [8], in test [9], in test [10] and in test [11] was greater than 100 µM in each case.

`Nc1c(C(=O)O)nnc2cc(Cl)ccc12`: the TGI in test [1], in [2], in test [3], in test [4], in test [5] and in test [6] was greater than 100 µM each time. Besides, the TGI in test [7], in test [8], in [9], in test [12] and in test [11] was greater than 100 µM in each case.

In the case of `C=C1CC(O)C2C(=C)C(=O)OC2C2C(C)C(=O)CC12` (configuration not stated), the TGI came to 20.3 µM in test [1]; 17.9 µM in test [2]; 16.6 µM in test [3]; 34.4 µM in test [5]; 53.2 µM in test [6]; 38.5 µM in test [7]. The TGI in [8] is 35.6 µM; in [9], 47 µM; in [10], 33.8 µM; in test [12] it was 19.9 µM; in test [11] it was 49.7 µM.

Consider `COc1ccc(C2NC(N)=C(C#N)C3=C2C(C)CCC3)cc1OC` (configuration not stated), for which the TGI in test [1] is greater than 100 µM; in [2], greater than 100 µM; in test [3], greater than 100 µM; in test [4], greater than 100 µM; in test [6] it was 23 µM; in test [7], greater than 100 µM. The TGI in [8], in test [9] and in test [11] was greater than 100 µM throughout.

On to `Cc1cc(OCc2nnc3n2N=C(c2cc(F)c(Cl)cc2Cl)/C(=C/c2ccc(-c4ccc(Cl)cc4)o2)S3)ccc1Cl`, for which the TGI in [1], in test [2], in test [3], in test [4], in test [5] and in test [6] was greater than 50 µM in each case. Also, the TGI in [7], in test [8], in [9], in test [12] and in [11] was greater than 50 µM each time.

Regarding `Cc1ccc(S(=O)(=O)NC(=O)NC(CC(=O)O)C(=O)O)cc1` (configuration not stated), the TGI in [1], in test [2], in [4], in test [6], in test [7] and in [9] was greater than 100 µM throughout. Moreover, the TGI in test [10], in test [12] and in test [11] was greater than 100 µM throughout.

Turning to `Cc1cc(O)c(C(C)C)cc1C(=S)Nc1ccc(Cl)cc1`, the TGI in test [1] worked out at 23.7 µM; in [2] it was 25.7 µM; in test [3] it was 27.9 µM; in [4], 27.3 µM; in test [5] it was 33 µM; in [6] it was 20.4 µM. Further, the TGI in test [8] worked out at 25.3 µM; in [9], 23.8 µM; in test [12] it was 17.8 µM; in [11] it was 34.5 µM.

As to `CCc1n[nH]c(=O)[nH]1`, the TGI in [1], in [2], in test [3], in [4], in test [5] and in [6] was greater than 100 µM in each case. For the same molecule, the TGI in test [7], in test [8], in test [9], in test [12] and in test [11] was greater than 100 µM each time.

Take `N#Cc1c(N2CCCC2)nsc1Nc1ccccc1`: the TGI in test [1], in test [2], in test [4], in test [5], in test [6] and in [7] was greater than 100 µM in each case. The TGI in test [8], in test [9], in [10] and in test [11] was greater than 100 µM throughout.

The record behind these values is PubChem BioAssay (NCI).
